Results as given in patent US6369092B1, “Method for treating neoplasia by exposure to substituted benzimidazole derivatives” (Cell Pathways, Inc., priority 1998, dated 2002).

Compound: CCCc1nc2ccc(NC(=O)OC(C)(C)C)cc2n1Cc1ccccc1Cl [I, 6-t-Butoxycarbonylamino-1-(2-Chlorobenzyl)-2-n-Propylbenzimidazole]
- melting point: 166 to 168 °C
